Test results from patent US12053442B2, “Methods and compositions for neuroprotection” (The Feinstein Institutes for Medical Research, priority 2020, dated 2024).

Legend:
control and CA rats = assay: Cocktail development trials to assess survival benefit (Table 9); assay type: in vivo, rat; conditions: reason for removal from the cocktail
Method: Our goal was to provide the most benefit with the least number of agents in a single concoction. […] This information can aid in selecting agents that can be appropriately and practically combined. […] Each drug, individually and in various combinations, was administered to normal rats (n=3) to determine any potential adverse effects, such as immediate death.

[1] = Solubility in water during cocktail formulation; assay type: physicochemical; conditions: formulation NWH-1
[2] = ESI-MS evaluation of active cocktail components (stability, molecular interaction); assay type: physicochemical; conditions: ESI-MS after ethyl acetate extraction (FIG. 6)
Method: Then the molecular mass of the extracted components was analyzed by electrospray ionization mass spectrometry (ESI-MS) (FIG. 6). […] Then the preparation was centrifuged at 10 000 g for 2 min at room temperature. The top layer (ethyl acetate) was then separated and transferred to a new vial. Another […] ethyl acetate was added into the bottom layer, and the extraction was repeated. The combined organic phase was dried with nitrogen gas. The residue was reconstituted in 500 μL methanol, vortexed for 10 s, and centrifuged at 13 000 g for 2 min. The final extract was transferred into a polypropylene vial. Then 30 μL of the final extract was injected and analyzed on a LTQ XL™ Linear Ion Trap Mass Spectrometer (Thermo Fisher Scientific, Waltham, MA), and the data was analyzed using Xcalibur 3.1 (Thermo Fisher Scientific, Waltham, MA).

Row | SMILES | Stability of drug in the final cocktail formulation by mass spectra [2] | other results
1 | Nc1ncnc2c1ncn2[C@@H]1O[C@H](COP(=O)([O-])OP(=O)(O)OP(=O)(O)O)[C@@H](O)[C@H]1O.[Cl-].[Mg+2] [ATP-magnesium chloride, adenosine triphosphate-magnesium chloride] | – | Adverse effect seen in preliminary trials (control and CA rats): hypotensive effect
2 | C/C(=C(\CCOC(=O)C(C)C)SS/C(CCOC(=O)C(C)C)=C(/C)N(C=O)Cc1cnc(C)nc1N)N(C=O)Cc1cnc(C)nc1N [sulbutiamine, Sulbutiamine] | – | Solubility in water [1]: insoluble in
3 | CC(=O)N[C@@H](CS)C(=O)O [N-acetyl cysteine] | intact and stable | –
4 | O=C1O[C@H]([C@@H](O)CO)C(O)=C1O [vitamin C, ascorbic acid] | intact and stable | –
5 | COC1=C(OC)C(=O)C(C/C=C(\C)CC/C=C(\C)CC/C=C(\C)CC/C=C(\C)CC/C=C(\C)CC/C=C(\C)CC/C=C(\C)CC/C=C(\C)CC/C=C(\C)CCC=C(C)C)=C(C)C1=O [CoQ10, Coenzyme Q10] | – | Solubility in water [1]: insoluble in
6 | CC1=NN(c2ccccc2)C(=O)C1 [edaravone, Edaravone] | intact and stable | –
7 | CN(C)C(=N)N=C(N)N [metformin, Metformin] | intact and stable | –
8 | N=C(N)NC(=O)c1cnn(-c2cccc3ncccc23)c1C1CC1 [zoniporide, Zoniporide] | intact and stable | –
